According to BindingDB's records for doi:10.1016/j.ejmech.2016.12.029 (University of Auckland, 2017):

Experiment: Inhibition of recombinant human IDO1 expressed in yeast assessed as yeast growth restoration after 40 to 45 hrs in presence of galactose

- EC50: 2 µM
SMILES: CN1CCN(C(CO)Cc2ccccc2)CC1 (stereo unspecified)
